Data as given in US20230133958A1, “COMPOUNDS USEFUL IN MODULATING EGFR AND PI3K” (Mekanistic Therapeutics LLC, priority 2021, published 2023).

Key:
Format in all cases: cell-based
RPMI-8226 = assay: NCI COMPARE panel (SRB growth inhibition), RPMI-8226; conditions: Homo sapiens; Leukemia, RPMI-8226, 48 h
Protocol: (§1) The human tumor cell lines of the cancer screening panel are grown in RPMI 1640 medium containing 5% fetal bovine serum and 2 mM L-glutamine. For a typical screening experiment, cells are inoculated into 96 well microtiter plates in 100 µL at plating densities ranging from 5,000 to 40,000 cells/well depending on the doubling time of individual cell lines. After cell inoculation, the microtiter plates are incubated at 37° C., 5% CO2, 95% air and 100% relative humidity for 24 h prior to addition of experimental drugs.
(§2) After 24 h, two plates of each cell line are fixed in situ with TCA, to represent a measurement of the cell population for each cell line at the time of drug addition (Tz). Experimental drugs are solubilized in dimethyl sulfoxide at 400-fold the desired final maximum test concentration and stored frozen prior to use. […]
(§3) Following drug addition, the plates are incubated for an additional 48 h at 37° C., 5 % CO2, 95% air, and 100% relative humidity. […] Bound stain is subsequently solubilized with 10 mM trizma base, and the absorbance is read on an automated plate reader at a wavelength of 515 nm. […] Using the seven absorbance measurements [time zero, (Tz), control growth, (C), and test growth in the presence of drug at the five concentration levels (Ti)], the percentage growth is calculated at each of the drug concentrations levels. Percentage growth inhibition is calculated as: […]

ACHN = assay: NCI COMPARE panel (SRB growth inhibition), ACHN; conditions: Homo sapiens, Renal Cancer, 48 h
Protocol: as §1, §2, §3

CCRF-CEM = assay: NCI COMPARE panel (SRB growth inhibition), CCRF-CEM; conditions: Homo sapiens, Leukemia, 48 h
Protocol: as §1, §2, §3

KM12 = assay: NCI COMPARE panel (SRB growth inhibition), KM12; conditions: Homo sapiens; Colon Cancer, KM12, 48 h
Protocol: as §1, §2, §3

IGROV1 = assay: NCI COMPARE panel (SRB growth inhibition), IGROV1; conditions: Homo sapiens, IGROV-1; Ovarian Cancer, IGROV1, 48 h
Protocol: as §1, §2, §3

HCT-116 = assay: NCI COMPARE panel (SRB growth inhibition), HCT-116; conditions: Homo sapiens; Colon Cancer, HCT-116, 48 h
Protocol: as §1, §2, §3

NCI-H226 = assay: NCI COMPARE panel (SRB growth inhibition), NCI-H226; conditions: Homo sapiens; Non-Small Cell Lung Cancer, NCI-H226, 48 h
Protocol: as §1, §2, §3

UACC-62 = assay: NCI COMPARE panel (SRB growth inhibition), UACC-62; conditions: Homo sapiens; Melanoma, UACC-62, 48 h
Protocol: as §1, §2, §3

UO-31 = assay: NCI COMPARE panel (SRB growth inhibition), UO-31; conditions: Homo sapiens; Renal Cancer, UO-31, 48 h
Protocol: as §1, §2, §3

OVCAR-3 = assay: NCI COMPARE panel (SRB growth inhibition), OVCAR-3; conditions: Homo sapiens; Ovarian Cancer, OVCAR-3, 48 h
Protocol: as §1, §2, §3

NCI-H522 = assay: NCI COMPARE panel (SRB growth inhibition), NCI-H522; conditions: Homo sapiens; Non-Small Cell Lung Cancer, NCI-H522, 48 h
Protocol: as §1, §2, §3

SN12C = assay: NCI COMPARE panel (SRB growth inhibition), SN12C; conditions: Homo sapiens, Renal Cancer, 48 h
Protocol: as §1, §2, §3

M14 = assay: NCI COMPARE panel (SRB growth inhibition), M14; conditions: Homo sapiens; Melanoma, M14, 48 h
Protocol: as §1, §2, §3

NCI/ADR-RES = assay: NCI COMPARE panel (SRB growth inhibition), NCI/ADR-RES; conditions: Homo sapiens, Ovarian Cancer, 48 h
Protocol: as §1, §2, §3

U251 = assay: NCI COMPARE panel (SRB growth inhibition), U251; conditions: Homo sapiens, U-251; CNS Cancer, U251, 48 h
Protocol: as §1, §2, §3

SNB-75 = assay: NCI COMPARE panel (SRB growth inhibition), SNB-75; conditions: Homo sapiens; CNS Cancer, SNB-75, 48 h
Protocol: as §1, §2, §3

A498 = assay: NCI COMPARE panel (SRB growth inhibition), A498; conditions: Homo sapiens; Renal Cancer, A498, 48 h
Protocol: as §1, §2, §3

NCI-H23 = assay: NCI COMPARE panel (SRB growth inhibition), NCI-H23; conditions: Homo sapiens; Non-Small Cell Lung Cancer, NCI-H23, 48 h
Protocol: as §1, §2, §3

HCC-2998 = assay: NCI COMPARE panel (SRB growth inhibition), HCC-2998; conditions: Homo sapiens; Colon Cancer, HCC-2998, 48 h
Protocol: as §1, §2, §3

Compound	GI50 (RPMI-8226) [nM]	GI50 (ACHN) [nM]	GI50 (CCRF-CEM) [nM]	GI50 (KM12) [nM]	GI50 (IGROV1) [nM]	GI50 (HCT-116) [nM]	GI50 (NCI-H226) [nM]	GI50 (UACC-62) [nM]	GI50 (UO-31) [nM]	GI50 (OVCAR-3) [nM]	GI50 (NCI-H522) [nM]	GI50 (SN12C) [nM]	GI50 (M14) [nM]	GI50 (NCI/ADR-RES) [nM]	GI50 (U251) [nM]	GI50 (SNB-75) [nM]	GI50 (A498) [nM]	GI50 (NCI-H23) [nM]	GI50 (HCC-2998) [nM]
CS(=O)(=O)Nc1cc(-c2ccc3ncnc(Nc4cccc(Cl)c4F)c3c2)cnc1Cl [Compound 6, N-[2-chloro-5-[4-(3-chloro-2-fluoro-anilino)quinazolin-6-yl]-3-pyridyl] methanesulfonamide]	125 to 250	125 to 250	125 to 250	> 250	≤ 75	125 to 250	> 250	≤ 75	≤ 75	75 to 125	125 to 250	125 to 250	125 to 250	> 250	> 250	≤ 75	≤ 75	125 to 250	125 to 250
CS(=O)(=O)Nc1cc(-c2ccc3ncc(C#N)c(Nc4cccc(Cl)c4F)c3c2)cnc1Cl [Compound 10, N-[2-chloro-5-[4-(3-chloro-2-fluoro-anilino)-3-cyano-6-quinolyl]-3-pyridyl]methanesulfonamide]	≤ 75	> 250	≤ 75	> 250	75 to 125	≤ 75	> 250	75 to 125	125 to 250	> 250	> 250	75 to 125	> 250	> 250	≤ 75	≤ 75	≤ 75	125 to 250	> 250
